In patent publication US20230167142A1, “METHODS FOR THE MONO-AMIDATION OF PHOSPHATES AND PHOSPHONATES” (Board of Regents, The University of Texas System, priority 2020, published 2023):
Where two headings read alike, the source gives them in different places.

Experiments:
Format in all cases: cell-based
[1] = test system: ENO1-rescued (D423 ENO1) glioma cells; assay: cells; conditions: for activity in cell proliferation assay (FIG. 1): 5 days
Procedure: (§1) FIGS. 1A, 1B, 1C, and 1D show cell proliferation assays for enolase inhibitors HEX (1A), FLM37 (1B), CDP18 (1C), and VCY32 (1D) against (i) ENO1-deleted (D423), (ii) ENO1-rescued (D423 ENO1), and (iii) ENO1-wildtype (LN319) glioma cells. Cells were incubated with pro-drug inhibitor for 5 days. Then, cells were fixed and stained with crystal violet and quantified spectroscopically. Numerical labels indicate concentration of enolase inhibitor in nM.
(§2) FIGS. 2A, 2B, and 2C show plots of relative cell density (vertical axis) against concentration (horizontal axis, nM) of enolase inhibitors FLM37 (2A), CDP18 (2B), and VCY32 (2C) for (i) ENO1-deleted (D423), (ii) ENO1-rescued (D423 ENO1), and (iii) ENO1-wildtype (LN319) glioma cells.
(§3) See, Leonard et al. (2016) Nat. Chem. Biol. 12:1053-1058 and Satani et al. (2016) PLos One, 11:e0168739, each of which is incorporated by reference for all purposes. Then, cells were fixed and stained with crystal violet and quantified spectroscopically. Cell density as measured by crystal violet were plotted as a function of inhibitor.
(§4) FIGS. 1A, 1B, 1C, and 1D show representative cell proliferation assays for the compounds HEX (1A), FLM37 (1B), CDP18 (1C), and VCY32 (1D). For each compound, assays are run against (i) ENO1-deleted (D423), (ii) ENO1-rescued (D423 ENO1), and (iii) ENO1-wildtype (LN319) glioma cells.

[2] = test system: ENO1-deleted (D423) glioma cells; assay: Crystal violet cell proliferation assay, ENO1-deleted D423 cells; conditions: for IC50: Glioma cell
Procedure: as §1, §2
(§5) Numerical labels indicate concentration of enolase inhibitor in nM.
as §3, §4

[3] = test system: ENO1-wildtype (LN319) glioma cells; assay: Crystal violet cell proliferation assay, ENO1-wildtype LN319 cells; conditions: for activity in cell proliferation assay (FIG. 1): 5 days
Procedure: as §1, §2, §5, §3, §4

[4] = table of Formula V compounds, R6 = POM, read-out: IC50, D423 EN01 (ENO1 +/+)
[5] = Glioma cell, table of Formula V compounds, R6 = POM, read-out: IC50, D423 EN01 (ENO1 +/+)
[6] = ENO1-deleted (D423), read-out: IC50,D423 (ENO1−/−)
[7] = LN-319, ENO1-wildtype (LN319), read-out: IC50, LN319 (ENO1+/+)
[8] = Glioma cell, footnote, experiment with VCY32, read-out: IC50 in reference to respective POMHEX control

In the case of “((((2,4-difluorobenzyi)amino)(1-hydrnxy-2-oxopiperidin-3-yl)phosphoryl)oxy)methyl pivalate [CDP14]”, the IC50 [1, 4] is reported as 0.0803 µM.
In the case of `CC(C)(C)C(=O)OCOP(=O)(NCc1ccc(F)cc1)C1CCCN(O)C1=O` (stereo not drawn) [VCY19, ((((4-fluorobenzyl)amino)(1-hydroxy-2-oxopiperidin-3-yl)phosphoryl)oxy)methyl pivalate], the IC50 [1, 5] is reported as 0.129 µM.
With “((((3,4-difluornhenzyl)amino)(1-hydro:xy-2-oxopiperidin-3-yl)phosphoryl)oxy)methyl pivalate [CDP13]” the IC50 [1, 4] was 0.0846 µM.
With `CNP(=O)(OCOC(=O)C(C)(C)C)C1CCCN(O)C1=O` (stereo not drawn) [CDP23, (((1-hydroxy-2-oxopiperidin-3-yl)(methylamino)phosphoryl)oxy)methyl pivalate] the “greater potency compared to CDP21” value [2] was “more than 2.5 fold”, the IC50 ([2]; 120 h, D423 cells, 5 days incubation, crystal violet, read-out: IC50) was 0.04 µM and the IC50 [2, 6] was 0.04 µM. The “selectivity for ENO1-deleted cells” value ([2]; crystal violet cell proliferation assay, 5 days) was “selective for ENO1-deleted cells”, the IC50 ([1]; Glioma cell, ENO1-rescued (D423 ENO1), read-out: IC50,D423 ENO1 (ENO1+/+)) was 0.79 µM and the IC50 [1, 5] was 0.0626 µM. It also gave an IC50 [3, 7] of 1.5 µM.
`CCCCCCCCCCCCNP(=O)(O)C1CCCN(O)C1=O` (stereo not drawn) [CDP22, N-dodecyl-P-(1-hydroxy-2-oxopiperidin-3-yl)phosphonamidic acid] was tested, and the “level of inhibition of ENO1-deleted (D423) cells (FIG. 3), in words” value ([2]; ENO1-deleted (D423)) was “sub-micromolar levels”, the IC50 [2, 6] was 0.058 µM and the “inhibition / activity in ENO1-wildtype (LN319) cells (FIG. 3)” value ([3]; ENO1-wildtype (LN319)) was “shows activity”. It also gave an IC50 [3, 7] of 0.844 µM and an IC50 ([3]; LN-319, text b400, read-out: IC50 values for ENO1-wildtype (LN319) glioma cells (i) (FIGS. 4A, 4B)) of 0.024 µM.
In the case of `CC(C)(C)C(=O)OCOP(=O)(NCC1CC1)C1CCCN(O)C1=O` (stereo not drawn) [VCY32, ((((Cyclopropylmethyl)amino)(1-hydroxy-2-oxopiperidin-3-yl)phosphoryl)oxy)methyl pivalate], the “activity in cell proliferation assay (FIG. 1)” value (shortened to “activity … (FIG. 1)”) ([2]; ENO1-deleted (D423), 5 days) is reported as “activity at the micromolar range or better”, the “activity … (FIG. 1)” value ([1]; ENO1-rescued (D423 ENO1)) is reported as “activity at the micromolar range or better” and the IC50 [1, 8] is reported as 0.022 µM. The IC50 [1, 5] was 0.022 µM and the “activity … (FIG. 1)” value ([3]; ENO1-wildtype (LN319)) was “activity at the micromolar range or better”.
With `CC(C)(C)C(=O)OCOP(=O)(NCc1ccccc1)C1CCCN(O)C1=O` (stereo not drawn) [FLM37, (((benzylamino)(1-hydroxy-2-oxopiperidin-3-yl)phosphoryl)oxy)methyl pivalate] the “activity … (FIG. 1)” value ([2]; ENO1-deleted (D423), 5 days) was “activity at the micromolar range or better”, the “activity … (FIG. 1)” value ([1]; ENO1-rescued (D423 ENO1)) was “activity at the micromolar range or better” and the IC50 [1, 5] was 0.244 µM. For the same compound, the “activity … (FIG. 1)” value ([3]; ENO1-wildtype (LN319)) was “activity at the micromolar range or better”.
For “((((Cyclohexylmethyl)amino)(1-hydro:xy-2-oxopiperidin-3-yl)phosphoryl)oxy)methyl pivalate [CDP18]”, the “activity … (FIG. 1)” value ([2]; ENO1-deleted (D423), 5 days) was “activity at the micromolar range or better”, the “activity … (FIG. 1)” value ([1]; ENO1-rescued (D423 ENO1)) was “activity at the micromolar range or better” and the IC50 [1, 4] was 0.0811 µM. The “activity … (FIG. 1)” value ([3]; ENO1-wildtype (LN319)) was “activity at the micromolar range or better”.
For `CN(C)P(=O)(OCOC(=O)C(C)(C)C)C1CCCN(O)C1=O` (stereo not drawn) [CDP21, (((dimethylamino)(1-hydroxy-2-oxopiperidin-3-yl)phosphoryl)oxy)methyl pivalate], the “selectivity for ENO1-deleted cells” value [2] was “selective for ENO1-deleted cells”, the IC50 ([2]; 120 h) was 0.108 µM and the IC50 ([2]; read-out: IC50,D423 (ENO1−/−)) was 0.108 µM. It also gave an IC50 ([1]; Glioma cell, read-out: IC50, D423 EN01 (ENO1 +/+)) of 0.115 µM, an IC50 ([1]; Glioma cell, read-out: IC50,D423 ENO1 (ENO1+/+)) of 2.17 µM and an IC50 ([3]; LN-319, read-out: IC50, LN319 (ENO1+/+)) of 5.06 µM.
`CC(C)(C)C(=O)OCOP(=O)(NCc1ccccn1)C1CCCN(O)C1=O` (stereo not drawn) [KY9, (((1-hydroxy-2-oxopiperidin-3-yl){(pyridin-2-ylmethyl)amino)phosphoryl)oxy)methyl pivalate] gave an IC50 [1, 5] of 0.0962 µM.
`CC(C)(C)C(=O)OCOP(=O)(OCOC(=O)C(C)(C)C)C1CCCN(O)C1=O` (stereo not drawn) [POMHEX, (((1-hydroxy-2-oxopiperidin-3-yl)phosphoryl)bis(oxy))bis(methylene) bis(2,2-dimethylpropanoate), reference compound] gave an IC50 [1, 8] of 0.0415 µM, an IC50 ([1]; Glioma cell, footnote, experiment with VCY34, read-out: IC50 in reference to respective POMHEX control) of 0.217 µM and an IC50 [1, 5] of 0.0173 µM.
`CC(C)(C)C(=O)OCOP(=O)(NCc1cccc(F)c1)C1CCCN(O)C1=O` (stereo not drawn) [CDP12, ((((3-fluorobenzyl)amino)(1-hydroxy-2-oxopiperidin-3-yl)phosphoryl)oxy)methyl pivalate] gave an IC50 [1, 5] of 0.103 µM.
